Test results from patent US11655216B2 (priority 2016, dated 2023).
pEC50: −log10 of the molar value. Like-named read-outs stand apart in the source and are kept apart here.

Legend:
[1] = target: T1, glutathione-S-transferase (GST) tagged LXRalpha LBD (ligand binding domain) (Homo sapiens, UniProt Q13133); test: biochemical; conditions: for pEC50 / LXR alpha IP: potency (Inflection Point), compound-induced co-activator recruitment, TR-FRET
T1 construct: purchased Invitrogen pv4655
T1 sequence (Q13133 209-447 limits assumed): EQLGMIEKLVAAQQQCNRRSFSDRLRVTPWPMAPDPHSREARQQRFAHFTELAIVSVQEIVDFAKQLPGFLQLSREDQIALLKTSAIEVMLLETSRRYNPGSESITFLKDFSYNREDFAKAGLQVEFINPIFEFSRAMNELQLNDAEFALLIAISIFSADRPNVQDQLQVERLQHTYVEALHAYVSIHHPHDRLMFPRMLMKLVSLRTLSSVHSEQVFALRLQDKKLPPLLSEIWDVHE
Procedure, shortened: (§1)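 LXR alpha- or beta-LBD was added to test compounds, then a mix of fluorescein-labelled coactivator peptide and terbium anti-GST antibody. After room-temperature incubation, TR-FRET was read on a filter-based reader.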

[2] = target: T2, glutathione-S-transferase (GST) tagged LXRbeta LBD (ligand binding domain) (Homo sapiens, UniProt P55055); test: LanthaScreen TR-FRET Liver X Receptor Coactivator Assay, LXR beta; format: biochemical; conditions: for pEC50: LXR beta IP, potency (Inflection Point), compound-induced co-activator recruitment, TR-FRET; for Emax: read-out: LXR beta actiivty at max dose, efficacy (% Emax) in relation to reference dual agonist T0901317
T2 construct: purchased Invitrogen pv4658
T2 sequence (P55055 222-460 limits assumed): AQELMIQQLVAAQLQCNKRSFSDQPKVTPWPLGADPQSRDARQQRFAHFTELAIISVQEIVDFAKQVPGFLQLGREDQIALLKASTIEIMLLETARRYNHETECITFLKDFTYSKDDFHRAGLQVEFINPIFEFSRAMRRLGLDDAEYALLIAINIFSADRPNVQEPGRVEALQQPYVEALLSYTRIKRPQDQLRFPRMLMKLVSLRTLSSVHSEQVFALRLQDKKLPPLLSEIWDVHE
Procedure, shortened: as §1

[3] = read-out: LXR alpha actiivty at max dose, efficacy (% Emax) in relation to reference dual agonist T0901317
[4] = efficacy (% Emax) in relation to reference dual agonist T0901317
[5] = efficacy (% Emax) in relation to reference dual agonist T0901317, read-out: LXR alpha actiivty at max dose

| SMILES | pEC50 ([1]; LXR alpha IP) | Emax [1, 3] | pEC50 [2] | Emax [2] | LXR alpha IP [1] | LXR alpha actiivty at max dose [1, 4] | LXR beta actiivty at max dose [2, 4] | Emax [1, 5] | pEC50 ([1]; read-out: LXR alpha IP) |
| --- | --- | --- | --- | --- | --- | --- | --- | --- | --- |
| CN(C)C(=O)c1ccc(OCCCCC2CCN(C(=O)C(O)(c3ccccc3)C(F)(F)F)CC2)cc1Cl (single isomer, unassigned) [Example 3-8, 2-chloro-N,N-dimethyl-4-(4-(1-(3,3,3-trifluoro-2-hydroxy-2-phenylpropanoyl)piperidin-4-yl)butoxy)benzamide] | 6.76 | 30% | 8.30 | 85% | – | – | – | – | – |
| COc1cccc([C@](O)(C(=O)N2CCC3(CC2)C[C@H]3CCCOc2ccc(C(=O)N(C)C)c(Cl)c2)C(F)(F)F)c1 (single isomer, unassigned) [Example 14-4, 2-chloro-N,N-dimethyl-4-(3-((R or S)-6-((S or R)-3,3,3-trifluoro-2-hydroxy-2-(3-methoxyphenyl)propanoyl)-6-azaspiro[2.5]octan-1-yl)propoxy)benzamide] | – | 0% | 7.08 | 80% | No IP | – | – | – | – |
| CN(C)C(=O)c1ccc(OCCCC2CCN(C(=O)[C@](O)(c3ccccc3)C(F)(F)F)CC2)nc1Cl (single isomer, unassigned) [Example 3-20] | 5.64 | 28% | 7.60 | 74% | – | – | – | – | – |
| CN(C)C(=O)c1ccc(OCCC2CC23CCN(C(=O)C2(c4ccccc4)CCCN(C(=O)OC(C)(C)C)C2)CC3)cc1Cl (single isomer, unassigned) [Example 12-4, tert-butyl 3-((R or S)-1-(2-(3-chloro-4-(dimethylcarbamoyl)phenoxy)ethyl)-6-azaspiro[2.5]octane-6-carbonyl)-3-phenylpiperidine-1-carboxylate] | – | 0% | 6.74 | 22% | No IP | – | – | – | – |
| CN(C)C(=O)c1ccc(OCCC2CC23CCN(C(=O)C(C)(C)c2ccccc2)CC3)nc1Cl (stereo not shown) [Example 15-3, 2-chloro-N,N-dimethyl-6-(2-(6-(2-methyl-2-phenylpropanoyl)-6-azaspiro[2.5]octan-1-yl)ethoxy)nicotinamide] | 6.69 | 67% | 8.30 | 102% | – | – | – | – | – |
| CC(CCCOc1ccc(C(=O)N(C)C)c(Cl)c1)C1CCN(C(=O)C(O)(c2ccccc2)C(F)(F)F)CC1 (single isomer, unassigned) [Example 26-4, 2-chloro-N,N-dimethyl-4-((S or R)-4-(1-((S or R)-3,3,3-trifluoro-2-hydroxy-2-phenylpropanoyl)piperidin-4-yl)pentyloxy)benzamide] | 6.17 | – | 7.39 | – | – | 35% | 114% | – | – |
| COc1ccccc1[C@@](O)(C(=O)N1CCC2(CC1)C[C@@H]2CCCOc1ccc(C(=O)N(C)C)c(Cl)c1)C(F)(F)F (single isomer, unassigned) [Example 14-5, 2-chloro-N,N-dimethyl-4-(3-((S or R)-6-((R or S)-3,3,3-trifluoro-2-hydroxy-2-(2-methoxyphenyl)propanoyl)-6-azaspiro[2.5]octan-1-yl)propoxy)benzamide] | 6.64 | 50% | 8.00 | 118% | – | – | – | – | – |
| CN(C)C(=O)c1ccc(OCCCCC2CCN(C(=O)C(C)(O)c3ccccc3)CC2)cc1Cl (single isomer, unassigned) [Example 3-10, (S or R)-2-chloro-4-(4-(1-(2-hydroxy-2-phenylpropanoyl)piperidin-4-yl)butoxy)-N,N-dimethylbenzamide] | – | 5% | 6.45 | 55% | No IP | – | – | – | – |
| COc1cccc([C@@](O)(C(=O)N2CCC(C[C@@H](C)CCOc3ccc(C(=O)N(C)C)c(Cl)c3)CC2)C(F)(F)F)c1 (single isomer, unassigned) [Example 27-1, 2-chloro-N,N-dimethyl-4-((R or S)-3-methyl-4-(1-((R or S)-3,3,3-trifluoro-2-hydroxy-2-(3-methoxyphenyl)propanoyl)piperidin-4-yl)butoxy)benzamide] | – | – | 8.30 | 70% | – | – | – | 23% | 7.13 |
| CN(C)C(=O)c1ccc(OCCCC2CCN(C(=O)c3c(F)cccc3F)CC2)nc1Cl [Example 3-14, 2-chloro-6-(3-(1-(2,6-difluorobenzoyl)piperidin-4-yl)propoxy)-N,N-dimethylnicotinamide] | – | 46% | 6.80 | 77% | No IP | – | – | – | – |
| CCc1cccc([C@@](O)(C(=O)N2CCC(C[C@H]3C[C@@H](Oc4ccc(C(=O)N(C)C)c(Cl)c4)C3)CC2)C(F)(F)F)c1 (single isomer, unassigned) [Example 37-4, 2-chloro-4-((1R,3s)-3-((1-((R or S)-2-(3-ethylphenyl)-3,3,3-trifluoro-2-hydroxypropanoyl)piperidin-4-yl)methyl)cyclobutoxy)-N,N-dimethylbenzamide] | – | 13% | 7.80 | 120% | No IP | – | – | – | – |
| CN(C)C(=O)c1ccc(OCC[C@@H]2C[C@@H]2C2CCN(C(=O)[C@@](O)(c3ccccc3)C(F)(F)F)CC2)nc1Cl (single isomer, unassigned) [Example 10-6, 2-chloro-N,N-dimethyl-6-(2-((1S,2R or 1R,2S)-2-(1-((S or R)-3,3,3-trifluoro-2-hydroxy-2-phenylpropanoyl)piperidin-4-yl)cyclopropyl)ethoxy) nicotinamide] | 6.69 | 36% | 7.92 | 71% | – | – | – | – | – |
| CNC(=O)c1ccc(OCC[C@@H]2C[C@@H]2C2CCN(C(=O)[C@](O)(c3cc(F)cc(F)c3)C(F)(F)F)CC2)cc1Cl (single isomer, unassigned) [Example 10-3, 2-chloro-4-(2-((1S,2R or 1R, 2S)-2-(1-((R or S)-2-(3,5-difluorophenyl)-3,3,3-trifluoro-2-hydroxypropanoyl)piperidin-4-yl)cyclopropyl)ethoxy)-N-methylbenzamide] | 7.55 | 63% | 8.70 | 116% | – | – | – | – | – |
| CN(C)C(=O)c1ccc(OCC[C@@H]2C[C@@H]2C2CCN(C(=O)OCc3ccccc3)CC2)nc1Cl (single isomer, unassigned) [Example 10-7, benzyl 4-((1R,2S or 1S,2R)-2-(2-(6-chloro-5-(dimethylcarbamoyl)pyridin-2-yloxy)ethyl)cyclopropyl) piperidine-1-carboxylate] | 6.06 | 41% | 7.31 | 104% | – | – | – | – | – |
| CN(C)C(=O)c1ccc(OCCC2CC23CCN(C(=O)C(C)(C)c2ccsc2)CC3)cc1Cl (single isomer, unassigned) [Example 12-7, (R or S)-2-chloro-N,N-dimethyl-4-(2-(6-(2-methyl-2-(thiophen-3-yl)propanoyl)-6-azaspiro[2.5]octan-1-yl)ethoxy)benzamide] | 6.23 | 39% | 7.54 | 64% | – | – | – | – | – |
| COc1cccc(C(O)(C(=O)N2CCC3(CCC3CCCOc3ccc(C(=O)N(C)C)c(Cl)c3)CC2)C(F)(F)F)c1 (single isomer, unassigned) [Example 36-1, 2-chloro-N,N-dimethyl-4-(3-(7-((R or S)-3,3,3-trifluoro-2-hydroxy-2-(3-methoxyphenyl)propanoyl)-7-azaspiro[3.5]nonan-1-yl)propoxy)benzamide] | – | – | 7.18 | 52% | No IP | – | – | 3% | – |
| CN(C)C(=O)c1ccc(OCC2CC3(CCN(C(=O)C(C)(C)c4ccccc4)CC3)C2)cc1Cl [Example 33-2, 2-chloro-N,N-dimethyl-4-((7-(2-methyl-2-phenylpropanoyl)-7-azaspiro[3.5]nonan-2-yl)methoxy)benzamide] | – | 8% | 6.66 | 60% | No IP | – | – | – | – |
| CN(C)C(=O)c1ccc(OCCCCC2CCN(C(=O)C(O)(c3cccc(Cl)c3)C(F)(F)F)CC2)cc1Cl (single isomer, unassigned) [Example 3-2, (S or R)-2-chloro-4-(4-(1-(2-(3-chlorophenyl)-3,3,3-trifluoro-2-hydroxypropanoyl)piperidin-4-yl)butoxy)-N,N-dimethylbenzamide] | 6.89 | 37% | 8.22 | 79% | – | – | – | – | – |
| CN(C)C(=O)c1ccc(OCCCCC2CCN(S(=O)(=O)c3ccccc3C#N)CC2)nc1Cl [Example 7-3, 2-chloro-6-(4-(1-(2-cyanophenylsulfonyl)piperidin-4-yl)butoxy)-N,N-dimethylnicotinamide] | 5.53 | 57% | 6.95 | 120% | – | – | – | – | – |
